For nine compounds, IC50, EC50 and CC50 results are on record in ChEMBL document CHEMBL1201862, “PubChem BioAssay data set” (2004).

The subject of assay [1] is Danio rerio. In words: In Vivo Angiogenesis Dose-Response Confirmation. [Related pubchem assays: 732 (Assay preceding this confirmatory assay.)]. The format is functional, organism-based.
Assay [2] deals with Streptococcus sp. 'group A'. The experiment in a line: Streptococcus pyogenes SK(-)GAS viability under kanamycin – luminescence, BacTiterGlo, confirmation, counter-screen for streptokinase expression inhibitor project, dose response (AID 1900). It is filed as functional, organism-based. A general note: The purpose of a counterscreen is to sort out artefacts and off-target activity.

Assay [3] concerns Streptococcus. In words: GAS UMAA2166 growth inhibition – luminescence, BacTiterGlo, counter-screen for streptokinase expression inhibitor project, dose response (AID 1915).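 Also: potency for reduction of bacterial viability or growth.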 The format is functional, organism-based.
Assay [4] has as its target Peroxisome proliferator-activated receptor gamma/Nuclear receptor corepressor 2 (Homo sapiens, UniProt P37231+Q9Y618). The experiment in a line: Counterscreen for NR2E3 inverse agonists: TR-FRET-based biochemical high throughput dose response assay to identify inverse agonists of the interaction between peroxisome proliferator-activated receptor gamma (PPARg) and nuclear receptor co-repressor 2 (NCOR2). The format is functional.

The target of assay [5] is T1, Photoreceptor-specific nuclear receptor (Homo sapiens, UniProt Q9Y5X4). The format is functional, cell-based.
Assay [6] addresses T2, Voltage-gated N-type calcium channel alpha-1B subunit/Amyloid beta A4 precursor protein-binding family A member 1 (Homo sapiens, UniProt Q00975+Q02410). It is filed as protein assay.
For assay [7], the target named is T3, Streptokinase A (Streptococcus pyogenes serotype M1, UniProt P10520).
T3 sequence (P10520 whole entry): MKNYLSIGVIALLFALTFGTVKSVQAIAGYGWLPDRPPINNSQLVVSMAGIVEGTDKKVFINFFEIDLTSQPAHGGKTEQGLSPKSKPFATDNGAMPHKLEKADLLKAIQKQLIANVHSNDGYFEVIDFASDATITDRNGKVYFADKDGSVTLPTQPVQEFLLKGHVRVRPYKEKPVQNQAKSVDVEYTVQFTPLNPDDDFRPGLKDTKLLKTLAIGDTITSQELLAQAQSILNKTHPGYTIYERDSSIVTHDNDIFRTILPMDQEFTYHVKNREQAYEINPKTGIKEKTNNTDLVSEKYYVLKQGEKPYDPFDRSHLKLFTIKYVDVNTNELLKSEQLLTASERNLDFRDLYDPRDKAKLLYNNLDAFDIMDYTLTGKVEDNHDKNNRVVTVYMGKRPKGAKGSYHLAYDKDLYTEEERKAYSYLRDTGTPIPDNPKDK
In words: viability-normalized secreted streptokinase activity reduction – plasminogen activation absorbance, OD405, dose response (AID 1914).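 Also: secreted streptokinase activity via plasminogen activation per viability signal from cell pellet.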 The format is functional, Streptococcus pyogenes M1 GAS.

The target in assay [8] is T1, Photoreceptor-specific nuclear receptor. In words: ligands suppressing NR2E3 nuclear receptor activity – biochemical, TR-FRET, dose response (AID 463256). The format is functional. For orientation: In TR-FRET formats the signal depends on donor and acceptor labels being close together.
Assay [9] concerns the target T2, Voltage-gated N-type calcium channel alpha-1B subunit/Amyloid beta A4 precursor protein-binding family A member 1. It is filed as protein assay. This is another data set of the same source.
In assay [10] the test system is Vero. The experiment in a line: mammalian cell viability reduction – secondary assay, cytotoxicity control for West Nile virus antiviral project, dose response (AID 1650). The format is functional. The conditions noted are these: Chlorocebus sabaeus.
Assay [11] has as its target T4, Ubiquitin-conjugating enzyme E2 N (Homo sapiens, UniProt P61088).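 Also: Dose-response confirmation in a TR-FRET assay detecting UBC13-driven polyubiquitin chain formation, inhibition measured.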
T4 sequence (P61088 whole entry): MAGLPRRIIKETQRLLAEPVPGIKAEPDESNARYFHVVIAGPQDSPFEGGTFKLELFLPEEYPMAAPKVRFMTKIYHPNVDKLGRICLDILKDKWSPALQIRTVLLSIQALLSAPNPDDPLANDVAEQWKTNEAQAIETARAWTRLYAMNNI
It is filed as functional.

The target of assay [12] is Mitogen-activated protein kinase 10 (Homo sapiens, UniProt P53779). In words: Dose response biochemical screening assay for inhibitors of c-Jun N-Terminal Kinase 3 (JNK3). [Related pubchem assays: 746 ].
Assay [13] concerns the target Major prion protein (Homo sapiens, UniProt P04156). The format is functional, cell-based.
A short description of assay [14]: cells.
Assay [15] addresses T5, Small ubiquitin-related modifier 1 (Homo sapiens, UniProt P63165). The experiment in a line: SUMO1 protein-protein binding blockers, potency – biochemical, FRET, dose response (AID 624383). The format is functional. The conditions noted are these: read-out: IC50_Mean.
Assay [16] has as its target T5, Small ubiquitin-related modifier 1. The experiment in a line: SUMO1 protein interaction blockers, potency – biochemical, fluorescence polarization, uHTS hits, dose response (AID 624382). It is filed as functional. The conditions noted are these: read-out: IC50_Mean. For orientation: Polarisation of emitted light reports the rotation of a fluorescent probe.
The nature of assay [17]: HIV-1 Vif–A3G interaction blockers – biochemical, TR-FRET, GST-Vif 1-94, biotin-A3G peptide, dose response retest, primary screen (AID 1117319).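 Also: TR-FRET signal of purified GST-Vif binding a biotinylated A3G peptide; inhibitors lower the FRET signal by blocking Vif and A3G binding.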 It is filed as functional.
The test system of assay [18] is Vero. The experiment in a line: viability of Vero cells under compound – cytotoxicity control for flavivirus capping enzyme inhibitors (AID 588742). It is filed as functional. The conditions noted are these: Chlorocebus sabaeus.
The nature of assay [19]: fluconazole-exposed Candida albicans growth modulators – fluorescence, retest, confirmation (AID 2467). The format is functional, cell-based.
Assay [20] can be described thus: luciferase reporter signal suppression in cells – H4 neuroglioma cells, luminescence, dose response (AID 1990). It is filed as functional, cell-based.
In assay [21] the target is Voltage-gated inwardly rectifying potassium channel KCNH2 (Homo sapiens, UniProt Q12809). In words: concentration-dependent hERG rescue from blockers – cell-based, thallium flux, dose response (AID 2121). It is filed as ADME.
Assay [22] concerns the target Beta-galactosidase (Escherichia coli, UniProt Q8VNN2). The experiment in a line: detection-enzyme interference by beta-gal modulators – biochemical, E. coli enzyme, set 3, artefact control for CCR6 antagonist project, dose response (AID 504712). The format is functional.
Assay [23] can be described thus: NIH-3T3 fibroblast cytotoxicity, dose response, cytotoxicity control, cell-based, fluorescence, Alamar Blue, secondary assay (AID 2327).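 Also: NIH-3T3 mouse fibroblasts cultured with fluconazole at 8 µg/mL.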 The format is functional.
Assay [24] in a line: microbe, parasite or virus in culture. It is filed as functional. As to conditions: Mycobacterium tuberculosis.
Assay [25] in a line: Luminescence Cell-Based Dose Response HTS to Identify Inhibitors of 5'UTR Stem-Loop Driven Prion Protein mRNA Translation in H4 Neuroglioblastoma Cells. [Related pubchem assays: 1827 (Project Summary), 1813 (Primary HTS)]. The format is functional.
Assay [26] can be described thus: alpha-synuclein stem-loop luciferase translation blockers – H4 neuroglioma cells, luminescence, confirmation (AID 1988). It is filed as functional, cell-based.
For assay [27], the target named is 5-hydroxytryptamine receptor 1A (Homo sapiens, UniProt P08908). The format is functional.

The structures appear in SMILES notation. The source made the active and inactive calls.

Turning to `Cc1cccc2c1NC(=O)/C2=C1\Nc2ccccc2\C1=N/OCCN1CCNCC1`, the IC50 in [1] is 6.32 µM (active).
What is called EC50 is the concentration at which the effect is half-maximal. Take `Cc1ccnc(NC(=S)N2CCN(c3cccc(C(F)(F)F)c3)CC2)c1`: the 50% effective concentration (EC50) is 1.66 µM (active) in [2], 22.4 µM (active) in assay [3] and > 150 µM (not active) in assay [7]. Also, the IC50 in assay [4] was > 39.9 µM (not active); in [5], 1.76 µM (active); in [6], > 50 µM (inactive); in assay [8] it was > 39.9 µM (not active); in assay [9], 11.6 µM (active).
Turning to `CCCN(CCC)CCCNC(=O)c1cc2c(=O)n(CC)c3ccccc3c2s1`, the CC50 in assay [10] was 18.8 µM (active). In addition, the IC50 in [11] was > 20 µM (inactive).
Regarding `Cc1nn(C(C)C(=O)O)c(=O)c2c1sc1ccccc12` (configuration not stated), the IC50 in assay [12] is > 93.1 µM (not active); in [13] it was 8.45 µM (active); in assay [14], > 138 µM (inactive).
For `CCCN1Cc2cccc(C(=O)NCc3ccccc3)c2C1=O`, the IC50 in assay [12] was 57.8 µM (not active).
Turning to `Cc1nc2ccc3nc(NC(=O)c4ccco4)sc3c2s1`, the IC50 was 12.1 µM (active) in assay [15], > 66.6 µM (inactive) in [16], 4.28 µM (active) in assay [4] and 4.28 µM (active) in assay [8].
Turning to `CCC1S/C(=C(\C#N)C(=O)NCc2ccco2)N(c2ccc(F)cc2)C1=O` (configuration not stated), in assay [17], the IC50 was > 100 µM (active).
For `CCc1ccc(/C=C/C(=O)c2cc(Br)ccc(=O)c2O)cc1`, the CC50 in assay [18] was 13.5 µM (active); in assay [24], 11.5 µM (active). The half-maximal effective concentration (EC50) in assay [2] is 1.8 µM (active); in [3], 2.6 µM (active); in [19], 1.52 µM (active); in assay [20], > 120 µM (not active); in [21], 1.15 µM (active); in assay [23] it was 15.5 µM (inconclusive). The 50% effective concentration (EC50) is 15 µM (active) in assay [25] and 15.5 µM (active) in [26]. For the same compound, in assay [22], the IC50 was > 66.6 µM (inactive).
Regarding `Cc1noc(C)c1COc1ccc(C(=O)OC(C)C(=O)Nc2ccc(N3CCOCC3)cc2)cc1` (configuration not stated), the half-maximal effective concentration (EC50) in assay [27] is given as > 50 µM (not active).
